Here are results for 21 compounds from patent US20250115628A1, “FLUORINATED FLUOROPHORES” (HOWARD HUGHES MEDICAL INSTITUTE, priority 2023, published 2025).

The conditions of series [1]: rhodamine derivatives; 10 mM HEPES, pH 7.3; data from the inventors' published work; cited from earlier work.
For series [2] the following is noted: rhodamine derivatives; 10 mM HEPES, pH 7.3; data from the inventors' published work; cited from earlier work. This is another data set of the same source.
Series [3] can be described thus: General UV-vis and fluorescence spectroscopy. The series is classed as physicochemical. As for the experimental part:
Spectroscopy was performed using 1^−cm path length, 3.5^−mL quartz cuvettes or 1^−cm path length, 1.4^−mL semi-micro quartz cuvettes from Starna Cells. All measurements were taken at ambient temperature (22±2° C.). Absorption spectra were recorded on a Cary Model 100 spectrometer (Agilent), and fluorescence spectra were recorded on a Cary Eclipse fluorometer (Varian). The spectra, maximum absorption wavelength (labs), extinction coefficient at λabs (8), and maximum emission wavelength (em) were measured in 10 mM HEPES, pH 7.3 buffer (rhodamines and Malachite Green derivative 49) or 0.1 M NaOH (fluoresceins); the reported values for e are averages (n=3). Normalized spectra are shown for clarity.

Series [4] in a line: pKa determination (absorbance vs. pH). The note with it: for ηH: Hill coefficient from pH titration data; for pKa: aqueous buffer solutions.
Protocol: For pH 2.0-4.0, the McIlvaine citrate/phosphate buffer system was used. For other pH ranges dye absorbance was measured in buffers containing 150 mM NaCl and 10 mM buffer using the following systems: citrate (pH 4.0-6.0), phosphate (pH 5.8-8.0); tris (pH 7.8-9.0); carbonate (pH 9.2-10.0). Buffer solutions containing 5 M of each fluorophore were prepared (36 samples in duplicate from pH 4.0-10.0 for 51, 53, and 60; 48 samples in duplicate from pH 2.0-10.0 for 76 and 77). Absorbance values were recorded on a Cary Model 100 spectrometer and plotted using GraphPad Prism software. The points were fitted to a sigmoidal dose response curve with a variable slope to determine the Hill coefficient (ηH).
A short description of series [5]: Quantum yield determination. The series is classed as physicochemical. As for the experimental part: All reported absolute fluorescence quantum yield values (Φf) were measured using a Quantaurus-QY spectrometer (model C11374, Hamamatsu). This instrument uses an integrating sphere to determine photons absorbed and emitted by a sample. Measurements were carried out using dilute samples (A<0.1), and self-absorption corrections were performed using the instrument software.^81

A short description of series [6]: Determination of KL-Z (lactone-zwitterion equilibrium constant). The series is classed as physicochemical. On the set-up: key: KL-Z = (εdw/εmax)/(1−εdw/εmax); εdw measured in 1:1 dioxane/water. As to conditions: 1:1 dioxane:H2O. The procedure:
KL-Z was calculated using the following equation:^16, 18 KL-Z=(εdw/εmax)/(1−εdw/εmax). εdw is the extinction coefficient of the dyes in a 1:1 (v/v) dioxane/water solvent mixture; this dioxane/water mixture was chosen to give the maximum spread of KL-Z values across all classes of rhodamines.^18 εmax refers to the maximal extinction coefficients measured in different solvent mixtures empirically determined depending on dye type: 0.1% v/v trifluoroacetic acid in ethanol for 18, 20, 29, 34, 36, 70-72, 81-83, 93-95, 99-102, and 104; 0.1% v/v trifluoroacetic acid in 2,2,2^−trifluoroethanol for all other rhodamine variants. A accurate determination of low KL-Z values is complicated by the relatively poor sensitivity of absorbance measurements.

The conditions of series [7]: rhodamine derivatives; 1:1 dioxane:H2O; data from the inventors' published work; cited from earlier work.
[8] abbreviates: fluorescein derivatives, 0.1 N NaOH.
The mark [9] stands for this setting: rhodamine derivatives, 10 mM HEPES, pH 7.3.
[10] abbreviates: quinolinyl rhodamines, 10 mM HEPES, pH 7.3.

Where two headings read alike, the source gives them in different places.

Turning to `C[Si]1(C)c2cc(N3CCC3)ccc2C2(OC(=O)c3ccccc32)c2ccc(N3CCC3)cc21` [compound 1, JF646], in series [1], the ε is listed as 5,600 M^−1cm^−1, the λabs is 646 nm and the λem is on record as 664 nm. For the same compound, in series [2], the Φf is reported as 0.54.

The term pKa denotes the negative logarithm of the acid dissociation constant. With `CC1(C)C2=CC(=O)C=CC2=C(c2c(F)c(F)c(F)c(F)c2C(=O)O)c2ccc(O)cc21` [compound 51, 4,5,6,7^−Tetrafluoro-carbofluorescein], in series [3] (setting [8]), the ε is 96,700 M^−1cm^−1, the λabs turned out to be 564 nm and the λem is 585 nm. In series [4], this compound registered a ηH of 1.02 and a pKa of 6.86. The Φf in series [5] (setting [8]) stood at 0.54.

Turning to `CC1(C)C2=CC(=O)C(F)=CC2=C(c2c(F)c(F)c(F)c(F)c2C(=O)O)c2cc(F)c(O)cc21` [compound 53, 2′,4,5,6,7,7′-Hexafluorocarbofluorescein], in series [3] (setting [8]), the ε was 91,100 M^−1cm^−1, the λabs is listed as 576 nm and the λem is 599 nm. For the same compound, in series [4], the ηH is on record as 1.00 and the pKa came to 5.47. In addition, in series [5] (setting [8]), the Φf was 0.29.

Turning to `C[Si]1(C)C2=CC(=O)C=CC2=C(c2c(F)c(F)c(F)c(F)c2C(=O)O)c2ccc(O)cc21` [compound 55, 4,5,6,7^−Tetrafluoro-Si-fluorescein], in series [3] (setting [8]), the ε is 84,100 M^−1cm^−1, the λabs amounted to 598 nm and the λem turned out to be 614 nm. In series [4], this compound registered a ηH of 1.23 and a pKa of 7.08. Further, the Φf in series [5] (setting [8]) is recorded as 0.50.

Consider `O=C1OC2(c3ccc(O)cc3Oc3cc(O)ccc32)c2c(F)c(F)c(F)c(F)c21` [compound 60, 4,5,6,7^−tetrafluorofluorescein, reference compound], for which, in series [3] (setting [8]), the ε is recorded as 85,600 M^−1cm^−1, the λabs came out at 508 nm and the λem was 527 nm. In series [4], this compound had a ηH of 0.92. Besides, the Φf in series [5] (setting [8]) is on record as 0.85.

As for `CC1(C)C2=CC(=N)C=CC2=C(c2c(F)c(F)c(F)c(F)c2C(=O)O)c2ccc(N)cc21` [compound 71, 4,5,6,7^−Tetrafluoro-carborhodamine 110], in series [3] (setting [9]), the ε was 96,400 M^−1cm^−1, the λabs amounted to 575 nm and the λem is listed as 597 nm. In series [6] (rhodamine derivatives), this compound gave a KL-Z of 0.832. The compound further gave a Φf in series [5] (setting [9]) of 0.53.

Regarding `C[Si]1(C)C2=CC(=N)C=CC2=C(c2c(F)c(F)c(F)c(F)c2C(=O)O)c2ccc(N)cc21` [compound 72, 4,5,6,7^−Tetrafluoro-Si-rhodamine 110], in series [3] (setting [9]), the ε is recorded as 77,800 M^−1cm^−1, the λabs was 611 nm and the λem worked out at 627 nm. The compound further registered a KL-Z in series [6] (rhodamine derivatives) of 0.0195. In addition, the Φf in series [5] (setting [9]) was found to be 0.42.

Turning to `O=C1OC2(c3ccc(O)cc3Oc3cc(O)ccc32)c2ccccc21` [compound 73, reference compound], in series [3] (setting [8]), the ε is 90,000 M^−1cm^−1, the λabs is listed as 490 nm and the λem is recorded as 514 nm. The compound also displayed a ηH in series [4] of 0.97. Besides, the Φf in series [5] (setting [8]) is 0.92.

As for `O=C1OC2(c3cc(F)c(O)cc3Oc3cc(O)c(F)cc32)c2ccccc21` [compound 76, reference compound], in series [3] (setting [8]), the ε was 82,400 M^−1cm^−1, the λabs amounted to 490 nm and the λem was determined as 514 nm. Further, in series [4], the ηH turned out to be 0.98. Besides, the Φf in series [5] (setting [8]) is on record as 0.97.

Take `O=C1OC2(c3cc(F)c(O)cc3Oc3cc(O)c(F)cc32)c2c(F)c(F)c(F)c(F)c21` [compound 77, reference compound]: in series [3] (setting [8]), the ε is listed as 81,200 M^−1cm^−1, the λabs is 508 nm and the λem is reported as 527 nm. The compound also had a ηH in series [4] of 1.00. Moreover, the Φf in series [5] (setting [8]) stood at 0.18.

Regarding `N=c1ccc2c(-c3ccccc3C(=O)O)c3ccc(N)cc3oc-2c1` [compound 81], in series [1], the ε was 75,000 M^−1cm^−1, the λabs is 487 nm and the λem is reported as 520 nm. The KL-Z in series [7] was 2.53. In addition, the Φf in series [2] is 0.88.

Take `CC1(C)C2=CC(=N)C=CC2=C(c2ccccc2C(=O)O)c2ccc(N)cc21` [compound 82]: in series [1], the ε was 65,000 M^−1cm^−1, the λabs is on record as 552 nm and the λem is 577 nm. In addition, in series [7], the KL-Z is 0.0127. The Φf in series [2] is on record as 0.64.

`C[Si]1(C)C2=CC(=N)C=CC2=C(c2ccccc2C(=O)O)c2ccc(N)cc21` [compound 83]: in series [1], the ε is on record as 2,200 M^−1cm^−1, the λabs is recorded as 587 nm and the λem is 609 nm. Further, the Φf in series [2] was 0.53.

Regarding `[2H]C1([2H])N(c2ccc3c(c2)[Si](C)(C)C2=CC(=[N+]4C([2H])([2H])C([2H])([2H])C([2H])([2H])C4([2H])[2H])C=CC2=C3c2ccccc2C(=O)[O-])C([2H])([2H])C([2H])([2H])C1([2H])[2H]` [compound 89, JFX650], in series [1], the ε was 17,600 M^−1cm^−1, the λabs is given as 650 nm and the λem is 667 nm. The Φf in series [2] was 0.53.

For `CN(c1ccccc1)c1ccc2c(-c3ccccc3C(=O)[O-])c3ccc(=[N+](C)c4ccccc4)cc-3oc2c1` [compound 90], in series [1], the ε is given as 16,000 M^−1cm^−1 and the λabs was 549 nm. The KL-Z in series [7] is reported as 0.296.

Regarding `CCC1=CC2=C(c3ccccc3C(=O)O)c3cc4c(cc3C(C)(C)C2=CC1=NC)NCCC4` [compound 94, Carbo-Q-rhodamine], in series [3] (setting [9]), the ε is listed as 101,000 M^−1cm^−1, the λabs was found to be 598 nm and the λem is reported as 620 nm. The KL-Z in series [6] (rhodamine derivatives) came to 1.51. The same compound displayed a Φf in series [5] (setting [9]) of 0.51.

Take `CC1CC(C)(C)Nc2cc3[o+]c4cc5c(cc4c(-c4ccccc4C(=O)[O-])c3cc21)C(C)CC(C)(C)N5` (stereo not shown) [compound 99, 2^−(2,2,4,8,10,10^−Hexamethyl-1,2,3,4,8,9,10,11-octahydropyrano[3,2^−g:5,6^−g′]diquinolin-13^−ium-6^−yl)benzoate]: in series [3] (setting [10]), the ε is on record as 112,000 M^−1cm^−1, the λabs stood at 542 nm and the λem was 564 nm. The same compound showed a KL-Z in series [6] (quinolinyl rhodamines) of 6.30. The compound further displayed a Φf in series [5] (setting [10]) of 0.83.

On to `CC1CC(C)(C)Nc2cc3c(cc21)C(c1ccccc1C(=O)O)=c1cc2c(cc1[Si]3(C)C)=NC(C)(C)CC2C` (stereo not shown) [compound 100, 2^−(2,2,4,8,10,10,13,13-Octamethyl-2,3,4,8,9,10,11,13-octahydrosilino[3,2^−g:5,6^−g]diquinolin-6^−ylium-6(1H)-yl)-benzoate], for which, in series [3] (setting [10]), the ε was 10,400 M^−1cm^−1, the λabs is 638 nm and the λem is 655 nm. The same compound had a KL-Z in series [6] (quinolinyl rhodamines) of 0.0220. Besides, the Φf in series [5] (setting [10]) is reported as 0.34.

Regarding `CC1=CC(C)(C)Nc2cc3[o+]c4cc5c(cc4c(-c4ccccc4C(=O)[O-])c3cc21)C(C)=CC(C)(C)N5` [compound 101, 2^−(2,2,4,8,10,10^−Hexamethyl-1,2,10,11^−tetrahydropyrano[3,2-g:5,6^−g′]diquinolin-13^−ium-6^−yl)benzoate], in series [3] (setting [10]), the ε is 94,100 M^−1cm^−1, the λabs is 573 nm and the λem is reported as 595 nm. The KL-Z in series [6] (quinolinyl rhodamines) stood at 5.14. Besides, the Φf in series [5] (setting [10]) was found to be 0.68.

On to `CC1=CC(C)(C)N(C)c2cc3c(cc21)C(c1ccccc1C(=O)[O-])=c1cc2c(cc1O3)=[N+](C)C(C)(C)C=C2C` [compound 103, 2^−(1,2,2,4,8,10,10,11-Octamethyl-1,2,10,11-tetrahydropyrano[3,2^−g:5,6^−g]diquinolin-13^−ium-6^−yl)benzoate], for which, in series [3] (setting [10]), the ε is reported as 95,200 M^−1cm^−1, the λabs stood at 585 nm and the λem was determined as 610 nm. The compound also returned a KL-Z in series [6] (quinolinyl rhodamines) of 4.44. In series [5] (setting [10]), this compound gave a Φf of 0.73.

`CN1CCc2cc3c(cc21)[Si](C)(C)c1cc2c(cc1=C3c1c(F)c(F)c(F)c(F)c1C(=O)[O-])CC[N+]=2C` [compound 108, SiRF712]: in series [3] (setting [9]), the ε is recorded as 98,800 M^−1cm^−1, the λabs was 712 nm and the λem is reported as 735 nm. In series [6] (rhodamine derivatives), this compound had a KL-Z of 1.97. Besides, in series [5] (setting [9]), the Φf is recorded as 0.09.
